From US20120252729A1, “PTH-CONTAINING THERAPEUTIC/PROPHYLACTIC AGENT FOR OSTEOPOROSIS, CHARACTERIZED IN THAT PTH IS ADMINISTERED ONCE A WEEK IN A UNIT DOSE OF 100 TO 200 UNITS” (ASAHI KASEI PHARMA CORPORATION, priority 2009, published 2012)

Key:
[1] = in vivo
Description: The serum calcium was measured at the start, after 12 weeks, after 24 weeks, after 48 weeks, and after 72 weeks. Serum calcium standard value: 8.4 to 10.4 mg/dL. The standard concomitant drug (610 mg of calcium, 400 IU of vitamin D3, and 30 mg of magnesium) was taken once a day after dinner from the time of consent to the end of the trial.

[2] = tested on: patients diagnosed with primary osteoporosis; assay: Working Example 1: lumbar spine bone mineral density by DXA, teriparatide acetate 5 or 100 units once a week plus calcium agent; type: in vivo, human; settings: mean ± SD
Description: Both the 5 and 100 unit groups were administered two tablets of a calcium agent (containing 500 mg of precipitated calcium carbonate [200 mg as calcium] per tablet) once a day.
The osteoporosis patients were classified as condition shown in Table 1 based on the bone fracture risk factors present, as in Non-patent Reference 13, and compared. High-risk patients were defined as having all three factors involving age, prevalent vertebral fractures, and bone density or bone atrophy; low-risk patients were defined as other than the above.

[3] = tested on: high-risk patients diagnosed with primary osteoporosis; assay: Working Example 2: bone density of lumbar spine and femur by DXA; type: in vivo, human; settings: 200 units weekly; for Change in lumbar vertebral density (%), median: after 72 W
[4] = tested on: osteoporosis patients having normal renal function, mild or moderate renal dysfunction; settings: in vivo
[5] = tested on: high-risk patients diagnosed with primary osteoporosis; assay: Working Example 2: bone density of lumbar spine and femur by DXA; type: in vivo, human; settings: 200 units weekly; for Change in bone density (%), lumbar spine / Change in bone density (%), neck of femur / Change in bone density (%), proximal femur: patients taking glucocorticoid
Description: For the bone density of the femur, only the left side of the proximal part of the femur, rotated 20°, was measured at the start and every 24 weeks thereafter using dual-energy x-ray absorptiometry (DXA).

[6] = history of calcium L-aspartate, 24 W
[7] = history of calcium L-aspartate, 48 W
[8] = history of calcium L-aspartate, 72 W
[9] = history of calcium lactate, 24 W
[10] = history of calcium lactate, 48 W
[11] = history of calcium lactate, 72 W
[12] = history of raloxifene hydrochloride, 24 W
[13] = history of raloxifene hydrochloride, 48 W
[14] = history of raloxifene hydrochloride, 72 W
[15] = mild impairment (≧50-<80), after 24 W
[16] = mild impairment (≧50-<80), after 48 W
[17] = mild impairment (≧50-<80), final
[18] = moderate impairment (<50), after 24 W
[19] = moderate impairment (<50), after 48 W
[20] = moderate impairment (<50), after 72 W
[21] = moderate impairment (<50), final

teriparatide acetate
Corrected serum calcium value after administration, maximum [1]: 11.6 mg/dL
Corrected serum calcium value, range of the average [1]: 9.3 to 9.6 mg/dL
Corrected serum calcium, Mean [1]: 9.5 mg/dL
Corrected serum calcium, Median [1]: 9.5 mg/dL
Manifestation of hypercalcemia or hypercalciuria [1]: No manifestation of hypercalcemia or hypercalciuria was found
Safety in terms of the serum calcium (corrected serum calcium vs control) [1]: equivalent safety in terms of the serum calcium in all groups
Lumbar spine bone mineral density (% change) ([2]; high-risk patients, 5 units once a week, after 26 W): −0.9 ± 4.4%
Lumbar spine bone mineral density (% change) ([2]; high-risk patients, 5 units once a week, after 52 W): −0.6 ± 4.1%
Lumbar spine bone mineral density (% change) ([2]; high-risk patients, 5 units once a week, after 78 W): 0.4 ± 4.1%
Lumbar spine bone mineral density (% change) ([2]; high-risk patients, 5 units once a week, after 104 W): 0.4 ± 4.0%
Lumbar spine bone mineral density (% change) ([2]; high-risk patients, 5 units once a week, final check): −0.1 ± 4.8%
Lumbar spine bone mineral density (% change) ([2]; high-risk patients, 100 units once a week, after 26 W): 3.3 ± 4.5 %
Lumbar spine bone mineral density (% change) ([2]; high-risk patients, 100 units once a week, after 52 W): 4.3 ± 4.5 %
Lumbar spine bone mineral density (% change) ([2]; high-risk patients, 100 units once a week, after 78 W): 4.0 ± 4.5 %
Lumbar spine bone mineral density (% change) ([2]; high-risk patients, 100 units once a week, after 104 W): 4.9 ± 4.2 %
Lumbar spine bone mineral density (% change) ([2]; high-risk patients, 100 units once a week, final check): 4.5 ± 4.6 %
Lumbar spine bone mineral density (% change) ([2]; low-risk patients, 5 units once a week, after 26 W): −0.6 ± 6.4%
Lumbar spine bone mineral density (% change) ([2]; low-risk patients, 5 units once a week, after 52 W): −0.7 ± 6.2%
Lumbar spine bone mineral density (% change) ([2]; low-risk patients, 5 units once a week, after 78 W): 1.9 ± 7.5%
Lumbar spine bone mineral density (% change) ([2]; low-risk patients, 5 units once a week, final check): −0.6 ± 5.7%
Change in lumbar vertebral density (%), median ([3]; mild impairment (≧50-<80)): 6.6%
Change in lumbar vertebral density (%), median ([3]; normal (≧80)): 8.0%
Change in lumbar vertebral density (%), mean ([3]; normal (≧80), final): 7.5%
Side effects Yes (%) [4]: 36.8%
Side effects, point estimate of the difference [4]: 29.1
Side effects: No (%) [4]: 55.1%
Side effects: No, No. of cases [4]: 27
Side effects: Yes (%) [4]: 44.9%
Side effects: Yes, No. of cases [4]: 22
Percentage change in bone density (%), lumbar spine ([5]; history of Alfacalcidol, 24 W): 3.11%
Percentage change in bone density (%), neck of femur ([5]; history of Alfacalcidol, 24 W): 1.64%
Percentage change in bone density (%), proximal femur ([5]; history of Alfacalcidol, 24 W): 2.77%
Percentage change in bone density (%), lumbar spine ([5]; history of Alfacalcidol, 48 W): 5.47%
Percentage change in bone density (%), neck of femur ([5]; history of Alfacalcidol, 48 W): 0.85%
Percentage change in bone density (%), proximal femur ([5]; history of Alfacalcidol, 48 W): 2.31%
Percentage change in bone density (%), lumbar spine ([5]; history of Alfacalcidol, 72 W): 6.47%
Percentage change in bone density (%), neck of femur ([5]; history of Alfacalcidol, 72 W): 2.19%
Percentage change in bone density (%), proximal femur ([5]; history of Alfacalcidol, 72 W): 2.31%
Percentage change in bone density (%), lumbar spine ([5]; history of calcitriol, 24 W): 3.50%
Percentage change in bone density (%), neck of femur ([5]; history of calcitriol, 24 W): −0.60%
Percentage change in bone density (%), proximal femur ([5]; history of calcitriol, 24 W): −1.40%
Percentage change in bone density (%), lumbar spine ([5]; history of calcitriol, 48 W): 4.40%
Percentage change in bone density (%), neck of femur ([5]; history of calcitriol, 48 W): −4.03%
Percentage change in bone density (%), proximal femur ([5]; history of calcitriol, 48 W): −1.05%
Percentage change in bone density (%), lumbar spine ([5]; history of calcitriol, 72 W): 6.38%
Percentage change in bone density (%), neck of femur ([5]; history of calcitriol, 72 W): −3.53%
Percentage change in bone density (%), proximal femur ([5]; history of calcitriol, 72 W): −0.04%
Percentage change in bone density (%), lumbar spine [5, 6]: 3.78%
Percentage change in bone density (%), neck of femur [5, 6]: 1.44%
Percentage change in bone density (%), proximal femur [5, 6]: 1.76%
Percentage change in bone density (%), lumbar spine [5, 7]: 6.16%
Percentage change in bone density (%), neck of femur [5, 7]: 1.88%
Percentage change in bone density (%), proximal femur [5, 7]: 2.28%
Percentage change in bone density (%), lumbar spine [5, 8]: 5.85%
Percentage change in bone density (%), neck of femur [5, 8]: 4.17%
Percentage change in bone density (%), proximal femur [5, 8]: 3.69%
Percentage change in bone density (%), lumbar spine [5, 9]: 1.96%
Percentage change in bone density (%), neck of femur [5, 9]: 0.30%
Percentage change in bone density (%), proximal femur [5, 9]: 1.78%
Percentage change in bone density (%), lumbar spine [5, 10]: 3.45%
Percentage change in bone density (%), neck of femur [5, 10]: −4.35%
Percentage change in bone density (%), proximal femur [5, 10]: −1.68%
Percentage change in bone density (%), lumbar spine [5, 11]: 4.93%
Percentage change in bone density (%), neck of femur [5, 11]: −2.53%
Percentage change in bone density (%), proximal femur [5, 11]: −3.20%
Percentage change in bone density (%), lumbar spine ([5]; history of elcatonin, 24 W): 3.95%
Percentage change in bone density (%), neck of femur ([5]; history of elcatonin, 24 W): 1.62%
Percentage change in bone density (%), proximal femur ([5]; history of elcatonin, 24 W): 3.86%
Percentage change in bone density (%), lumbar spine ([5]; history of elcatonin, 48 W): 3.59%
Percentage change in bone density (%), neck of femur ([5]; history of elcatonin, 48 W): 0.72%
Percentage change in bone density (%), proximal femur ([5]; history of elcatonin, 48 W): 3.44%
Percentage change in bone density (%), lumbar spine ([5]; history of elcatonin, 72 W): 5.36%
Percentage change in bone density (%), neck of femur ([5]; history of elcatonin, 72 W): 3.15%
Percentage change in bone density (%), proximal femur ([5]; history of elcatonin, 72 W): 4.41%
Percentage change in bone density (%), lumbar spine ([5]; history of menatetrenone, 24 W): 2.70%
Percentage change in bone density (%), neck of femur ([5]; history of menatetrenone, 24 W): 0.72%
Percentage change in bone density (%), proximal femur ([5]; history of menatetrenone, 24 W): 0.60%
Percentage change in bone density (%), lumbar spine ([5]; history of menatetrenone, 48 W): 3.04%
Percentage change in bone density (%), neck of femur ([5]; history of menatetrenone, 48 W): −3.18%
Percentage change in bone density (%), proximal femur ([5]; history of menatetrenone, 48 W): −0.56%
Percentage change in bone density (%), lumbar spine ([5]; history of menatetrenone, 72 W): 4.32%
Percentage change in bone density (%), neck of femur ([5]; history of menatetrenone, 72 W): −0.78%
Percentage change in bone density (%), proximal femur ([5]; history of menatetrenone, 72 W): −1.40%
Percentage change in bone density (%), lumbar spine [5, 12]: 1.77%
Percentage change in bone density (%), neck of femur [5, 12]: 0.21%
Percentage change in bone density (%), proximal femur [5, 12]: 2.44%
Percentage change in bone density (%), lumbar spine [5, 13]: 4.96%
Percentage change in bone density (%), neck of femur [5, 13]: 1.03%
Percentage change in bone density (%), proximal femur [5, 13]: 2.26%
Percentage change in bone density (%), lumbar spine [5, 14]: 4.59%
Percentage change in bone density (%), neck of femur [5, 14]: −0.51%
Percentage change in bone density (%), proximal femur [5, 14]: 3.03%
Change in lumbar vertebral density (%), mean [5, 15]: 3.9%
Change in lumbar vertebral density (%), median [5, 15]: 3.7%
Change in lumbar vertebral density (%), mean [5, 16]: 6.0%
Change in lumbar vertebral density (%), median [5, 16]: 5.7%
Change in lumbar vertebral density (%), mean ([5]; mild impairment (≧50-<80), after 72 W): 6.3%
Change in lumbar vertebral density (%), mean [5, 17]: 5.8%
Change in lumbar vertebral density (%), median [5, 17]: 5.4%
Change in lumbar vertebral density (%), mean [5, 18]: 3.7%
Change in lumbar vertebral density (%), median [5, 18]: 3.5%
Change in lumbar vertebral density (%), mean [5, 19]: 4.9%
Change in lumbar vertebral density (%), median [5, 19]: 3.8%
Change in lumbar vertebral density (%), mean [5, 20]: 6.1%
Change in lumbar vertebral density (%), median [5, 20]: 6.3%
Change in lumbar vertebral density (%), mean [5, 21]: 5.6%
Change in lumbar vertebral density (%), median [5, 21]: 4.9%
Change in lumbar vertebral density (%), mean ([5]; normal (≧80), after 24 W): 4.3%
Change in lumbar vertebral density (%), median ([5]; normal (≧80), after 24 W): 5.1%
Change in lumbar vertebral density (%), mean ([5]; normal (≧80), after 48 W): 5.4%
Change in lumbar vertebral density (%), median ([5]; normal (≧80), after 48 W): 5.6%
Change in lumbar vertebral density (%), mean ([5]; normal (≧80), after 72 W): 8.1%
Change in lumbar vertebral density (%), median ([5]; normal (≧80), final): 5.6%
Change in bone density (%), lumbar spine ([5]; 24 W): 3.50%
Change in bone density (%), neck of femur ([5]; 24 W): 2.53%
Change in bone density (%), proximal femur ([5]; 24 W): 2.46%
Change in bone density (%), lumbar spine ([5]; 48 W): 5.97%
Change in bone density (%), neck of femur ([5]; 48 W): 2.79%
Change in bone density (%), proximal femur ([5]; 48 W): 3.39%
Change in bone density (%), lumbar spine ([5]; 72 W): 6.82%
Change in bone density (%), neck of femur ([5]; 72 W): 2.44%
Change in bone density (%), proximal femur ([5]; 72 W): 3.06%
